Our source for the EC50 values is paper PMC8064320, “Modulation of Glycinergic Neurotransmission may Contribute to the Analgesic Effects of Propacetamol” (Biomolecules, 2021).

Molecules are shown by their SMILES.

Holding throughout (assay): two-electrode voltage clamp, agonist-induced current in oocytes
Holding throughout (assay type): cell-based
What all share (conditions): read-out: Glycine Dose-Response Relationship / EC50, -50 mV, ND96 without Ca2+, pH 7.4, 21-23 °C
On the technique in general: Two-electrode voltage clamp holds a large cell at a set potential and records current.

One test has as its system T1, GlyRα1.
T1 construct: gene GLRA1; homomeric receptor (pentamer by known biology); plasmid pNKS2(GlyRα1); cRNA-injected Xenopus laevis oocytes
From the text: two-electrode voltage clamp, agonist-induced current in oocytes on GlyRα1

In a further test the test system is T2, GlyRα3.
T2 construct: gene GLRA3; subunit expressed individually (homopentamer by known biology); plasmid pNKS2(GlyRα3); cRNA-injected Xenopus laevis oocytes
From the text: two-electrode voltage clamp, agonist-induced current in oocytes on GlyRα3

The next test relates to T3, GlyRα2.
T3 construct: gene GLRA2; subunit expressed individually (homopentamer by known biology); plasmid pNKS2(GlyRα2); cRNA-injected Xenopus laevis oocytes
The source says: two-electrode voltage clamp, agonist-induced current in oocytes on GlyRα2

Turning to `NCC(=O)O` [glycine], the figures for the EC50 with GlyRα1, in the test on GlyRα3 and in the test on GlyRα2 were 162 µM, 234 µM and 325 µM, respectively.
